“Also recorded” adds a separate entry of the source. Where two headings read alike, the source gives them in different places.
Assays:
[1] = test system: splenocytes stimulated with L. donovani antigen; assay: Splenocyte T cell proliferation (Alamar blue) and cytokine ELISA after L. donovani antigen stimulation; format: in vivo, BALB/c mice; details: liposomal preparation
Procedure: One week after the treatment, the mice were euthanized and parasite loads in the liver and spleen were determined. Parasite loads in the spleen and liver were quantified as previously described (Murray, H. W. 2000. Infect Immun. 68: 6294-6299). Briefly, the liver and spleen impression smears were stained using Giemsa and parasite loads we quantified microscopically. LDU is determined by the number of amastigotes per 1000 nuclei multiplied by the weight (gm) of the liver or spleen. At this time, spleen cell suspensions were prepared and these cells were stimulated in vitro with 20 microgram/ml of Leishmania donovani antigen for 48-72 hrs to stimulate lymphocyte release. Proliferation of spleen cells were determined by Alamar blue assays and levels of cytokines including IFN-gamma in supernatant were quantified by ELISA using commercially available reagents from Biolegend and BD Biosciences.
T cell proliferation was determined as previously described (Rosas, L. E., et al., 2006. Am. J. Pathol. 168: 158-169.). Briefly, 5×10^5 cells were added in quadruplicate to the wells of sterile 96-well, flat-bottom tissue culture plates and stimulated with freeze-thawed L. donovani Ag (20 μg/ml). The proliferation responses were measured by Alamar blue assay (Ansar-Ahmed, A., et al., 1994. J. Immunol. Methods 170: 211-214.). Supernatants were collected after 72 hours of incubation at 37° C. and analyzed for the production of IFN-γ and IL-10 by standard ELISA methods (BD Pharmingen, Inc., San Diego, Calif.).

[2] = test system: Leishmania donovani (Strain LV9); assay: In vivo activity of liposomal preparation of compound 1, parasite loads in liver and spleen; set-up: species or system BALB/c mice; details: 46.1 μg compound 1, tail vein, one week after treatment
Procedure: Liposomes were made by rehydration of a lipid cake. First, hydrogenated soy phosphatidylcholine (Avanti Polar Lipids, Inc., Alabaster, Ala.), cholesterol (Avanti Polar Lipids), 1,2-distearoyl-sn-glycero-3-[phospho-rac-(1-glycerol)] (“DSPG”; Avanti Polar Lipids,), and α-tocopherol (Sigma-Aldrich Corporation, St. Louis, Mo.) were dissolved in a chloroform and methanol (9:1, v/v). Compound 1 was dissolved in the lipid solution at a weight ratio of compound 1 to lipid of 1:9 (i.e. for clarity, the solution comprised 10% by weight of compound 1 and 90% by weight of the lipid solution). The solution was placed on at rotary evaporator for about 30 minutes and the liquid was completely evaporated. The lipids were reconstituted into liposomes in deionized water (3 mL) for 30 minutes in a 60° C. water bath, followed by 3 freeze-thaw cycles. […] Loading of liposomes was verified and quantified by HPLC. […]
One week after the treatment, the mice were euthanized and parasite loads in the liver and spleen were determined. Parasite loads in the spleen and liver were quantified as previously described (Murray, H. W. 2000. Infect Immun. 68: 6294-6299). Briefly, the liver and spleen impression smears were stained using Giemsa and parasite loads we quantified microscopically. LDU is determined by the number of amastigotes per 1000 nuclei multiplied by the weight (gm) of the liver or spleen. […]

[3] = test system: promastigotes of L. mexicana; assay: Promastigote assay (L. mexicana, flow cytometry with propidium iodide); format: cell-based, Leishmania mexicana; details: for antileishmanial activity against promastigotes (in words): 48 h exposure; for IC50: Leishmania mexicana, 48 h, linear regression from 1, 10, 50 and 100 μg/mL
Procedure: Leishmania mexicana (MNYC/BZ/62/M379) was maintained by serial passage of amastigotes inoculated subcutaneously into the shaven rumps of 129SvE mice and was obtained by in vitro culture of amastigotes in RPMI-1640 supplemented with 10% fetal calf serum (FCS, Sigma-Aldrich Corporation, St. Louis, Mo.) and incubated at 28° C. All work including experimental animals was approved by the Institutional Animal Care and Use Committee (IACUC) of The Ohio State University.
One million log phase promastigotes of L. mexicana were seeded in 1 mL of complete RPMI-1640 medium, and parasite numbers, and their mobility and morphology were measured from 24 and 48 h. This was performed by flow cytometry measurements using experimental and control groups of parasites stained with propidium iodide and with Quillaja saponaria saponin as positive control, as reported in the literature. The test compounds isolated from P. andrieuxii were compared with a positive control: sodium stibogluconate, a pentavalent antimonial drug.

[4] = test system: L. mexicana amastigotes in bone marrow-derived macrophages; assay: Amastigote assay in infected bone marrow-derived macrophages; format: cell-based, Leishmania mexicana; details: for IC50: Leishmania mexicana, BMDM, in Mus musculus, 48 h, read-out: Amastigote IC50, 48 hours, infected BMDM from C57BL/6 mice; for antileishmanial activity against the amastigote stage (in words): 48 h treatment
Excerpt: Bone marrow derived macrophages were obtained from C57BL/6 mice. Bone marrow-derived macrophages (BMDM) (0.5×10^6) were adhered on top of glass rounded coverslips deposited at the bottom of individual plate's well (24 well tissue culture plate, Corning, Inc.). Next, macrophages were infected overnight with 2.5×10^6 stationary phase promastigotes of the L. mexicana (ratio 5:1). After this period, cells were extensively washed with Hank's balanced salt solution (HBSS) to eliminate non-phagocytosed parasites, and, after treatment with test compounds for 48 hours, cells were stained with Giemsa stain (Sigma). In each experiment, infection rates were recorded by counting the number of parasites in 100 macrophages on each slide in triplicate in a blinded fashion.

[5] = test system: intracellular parasites (L. mexicana amastigotes); assay: Electron microscopy of treated intracellular parasites; format: cell-based, Leishmania mexicana; details: 100 μM, 2 h
Procedure: Intracellular parasites were co-cultured, as previously described herein, by treating a 100 μM concentration of each pure compound for 2 h and suspending them in glutaraldehyde. Samples were further processed in an electron microscopy unit as follows: Incubation steps were carried out on a Lab-Line orbital shaker operating at 700 rpm (Barnstead/Thermolyne, Melrose Park, Ill.). After the initial fixation in 3% buffered glutaraldehyde, cell pellets were washed twice with sodium cacodylate buffer (pH 7.4, 10 minutes each) and spun down after each wash at 1500 rpm for 5 min. Cell samples were then post-fixed in 1% osmium tetroxide in sym-collidine buffer (pH 7.6) for 1 h at room temperature. Following two washes with sym-collidine buffer (10 min each) the cell pellet was stained with a saturated aqueous uranyl acetate solution (pH 3.3) for 1 h. Cell pellets were dehydrated in a graded EtOH series up to absolute (10 min each). Acetone was used as the transitional solvent, two changes for 10 min each. The cell suspensions were infiltrated overnight with a 1:1 mixture of acetone and Spurr's epoxy resin (Electron Microscopy Sciences, Fort Washington, Pa.). Finally, cell pellets were placed into BEEM™ embedding capsules containing 100% Spurr's resin. Polymerization of epoxy blocks was carried out at 70° C. overnight. Polymerized blocks were sectioned with a Leica Ultraut UCT ultramicrotome (Leica Microsystem GmbH, Wein, Austria). Methylene Blue-Basic Fuschin stained semi-thin (750 nm) sections were evaluated and two representative areas were thin-sectioned for ultrastructural examination. Ultrathin (80 nm) sections were collected on 200 mesh copper grids (Electron Microscopy Sciences) and post-stained with lead citrate (3 min).

[6] = 48 hours in culture, read-out: Promastigote IC50

SMILES	antileishmanial activity against promastigotes (in words) [3]	IC50 [3, 6]	IC50 [4]	electron microscopy findings in intracellular parasites [5]	antileishmanial activity against the amastigote stage (in words) [4]	also measured
C=C(CCC=C(C)C)[C@H]1CC[C@H]2[C@@H]3CCC4=CC(=O)CC[C@]4(C)[C@H]3CCC12C (stereo in doubt) [Compound 1, (8S,9S,10R,13R,14S,17R)-cholest-4,20,24-trien-3-one]	significant leishmanicidal activity; also recorded: inhibitory effects	30 µM	3.3 µM	morphological abnormalities and destruction of the amastigotes	–	levels of IL-10 secreted from splenocytes ([1]; Leishmanial antigen stimulation): no significant change; secretion of IFN-γ from splenocytes ([1]; Leishmanial antigen stimulation, P value<0.01): significant increase; T cell proliferation of splenocytes upon Leishmanial antigen stimulation ([1]; vs group without compound 1, P value<0.0001): significant increase; parasite load in hepatic cells [2]: decreased parasite load; parasite load in splenic cells [2]: decreased parasite load; activity relative to cholest-4-en-3-one (4), promastigote bioassay [3]: almost three times more active
C=C(CC[C@@H](C)[C@H]1CC[C@H]2[C@@H]3CCC4=CC(=O)CC[C@]4(C)[C@H]3CC[C@]12C)C(C)C [Compound 3, 24-methylcholesta-4,24(28)-dien-3-one]	significant leishmanicidal activity; also recorded: inhibitory effects	24 µM	3.5 µM	morphological abnormalities and destruction of the amastigotes	–	–
CC(C)CCC[C@@H](C)[C@H]1CC[C@H]2[C@@H]3CCC4=CC(=O)CC[C@]4(C)[C@H]3CC[C@]12C [Compound 4, cholest-4-en-3-one]	inhibitory effects	81 µM	0.03 µM	morphological abnormalities and destruction of the amastigotes	–	potency relative to pentostam, amastigote stage ([4]; ratio of IC50 values): ~100 times
CC[C@H](/C=C/[C@@H](C)[C@H]1CC[C@H]2[C@@H]3CCC4=CC(=O)CC[C@]4(C)[C@H]3CC[C@]12C)C(C)C [Compound 5, stigmast-4,22-dien-3-one]	inactive	–	–	–	inactive	–
CC[C@H](CC[C@@H](C)[C@H]1CC[C@H]2[C@@H]3CCC4=CC(=O)CC[C@]4(C)[C@H]3CC[C@]12C)C(C)C [Compound 6, stigmast-4-en-3-one]	inactive	–	–	–	inactive	–
C=C(CCC=C(C)C)[C@H]1CC[C@H]2[C@@H]3CC=C4C[C@@H](O)CC[C@]4(C)[C@H]3CC[C@]12C [Compound 7, cholest-5,20,24-trien-3β-ol]	inactive	> 262 µM	14.5 µM	–	significant activity; also recorded: active	–
CC(=O)C1=CC[C@H]2[C@@H]3CCC4=CC(=O)CC[C@]4(C)[C@H]3C[C@@H](O)[C@]12C [Compound 15, 6,7-dihydroneridienone]	potent; also recorded: inhibitory effects	–	–	morphological abnormalities and destruction of the amastigotes	–	–
CC(=O)C1=CC[C@H]2[C@@H]3C=CC4=CC(=O)CC[C@]4(C)[C@H]3C[C@@H](O)[C@]12C [Compound 16, neridienone]	significant leishmanicidal activity; also recorded: inhibitory effects	–	–	morphological abnormalities and destruction of the amastigotes	–	IC50 ([3]; read-out: Promastigote IC50, 48 hours in culture): 9.2 µM

— patent US10174072B2, “Antileishmanial compositions and methods of use” (Ohio State Innovation Foundation, priority 2011, dated 2019)
